The source of these data is patent publication US7683051B2, “Crystalline polymorph of bazedoxifene acetate” (Wyeth, priority 2004, dated 2010).

The conditions of data set [1]: acetic acid.
A short description of the next data set: physchem. The settings on record: EtOH/EtOAc/Tol, organic solvent or mixture, Solubility-Org (EtOH/EtOAc/Tol).
The conditions of data set [2]: acetic acid. This is another data set of the same source.
The subject of data set [3] is MCF-7 cell line (human breast cancer cell line). The settings on record: MCF-7 human breast cancer cell line; cited from earlier work.
A further data set has as its system uterine response. The settings on record: preclinical models of uterine stimulation; cited from earlier work.
Data set [4] relates to ovariectomized rat model of osteopenia. The settings on record: cited from earlier work.

For orientation: solubility means how much of the substance goes into solution per volume.

≈ marks a conversion by molar mass, not a printed value.

In the case of `Cc1c(-c2ccc(O)cc2)n(Cc2ccc(OCCN3CCCCCC3)cc2)c2ccc(O)cc12` [Form A, 1-[4-(2-azepan-1-yl-ethoxy)-benzyl]-2-(4-hydroxy-phenyl)-3-methyl-1H-indol-5-ol acetic acid], in data set [1], the Solubility-Water is 0.49 mg/mL (≈ 1.04 mM). In addition, the solubility in the data set “physchem” turned out to be 24.5 mg/mL (≈ 52.1 mM).

Turning to `Cc1c(-c2ccc(O)cc2)n(Cc2ccc(OCCN3CCCCCC3)cc2)c2ccc(O)cc12` [Form B, 1-[4-(2-azepan-1-yl-ethoxy)-benzyl]-2-(4-hydroxy-phenyl)-3-methyl-1H-indol-5-ol acetic acid], the Solubility-Water in data set [1] came to 0.23 mg/mL (≈ 0.489 mM). Further, in data set [2], the “Solubility-Org (EtOH/EtOAc/Tol)” value is 12.4 mg/mL (≈ 26.3 mM).

With `Cc1c(-c2ccc(O)cc2)n(Cc2ccc(OCCN3CCCCCC3)cc2)c2ccc(O)cc12` [bazedoxifene acetate, 1-[4-(2-azepan-1-yl-ethoxy)-benzyl]-2-(4-hydroxy-phenyl)-3-methyl-1H-indol-5-ol acetic acid], in data set [3], the “estrogen agonist/antagonist behaviour in MCF-7 cells” value is listed as “behaves as an estrogen antagonist”. In addition, in the data set with uterine response, the “stimulation of uterine response” value is on record as “little or no stimulation of uterine response”. For the same molecule, in data set [4], the “effect on bone loss” value is recorded as “estrogen agonist-like effect in preventing bone loss” and the effect on cholesterol result is “reducing cholesterol”.
